Measurements: US20140120232A1, “ACID TASTE/ACID SMELL-REDUCING AGENT” (T. HASEGAWA CO., LTD., priority 2011, published 2014)

Assay: Sensory evaluation of mayonnaise containing the agent
Conditions: ten panels
Protocol: Sensory evaluation of each drink was carried out by ten panels. […] The piercing aroma characteristic to aldehydes is a characteristic aroma common to every aldehyde and refers to an irritant off-smell giving an image of deteriorated oils and fats, soap, metals, Houttuynia cordata, etc. The judgment of smell was performed by comparing the effects at different concentrations of the acid taste and/or acid smell-reducing agent, and a concentration giving the highest acid taste/acid smell quality was selected.
A mayonnaise base material (100 g) was prepared by mixing 12 g of edible vinegar, 75 g of vegetable oils and fats, and 13 g of an aqueous solution containing egg yolk and spices. To the resulting mixture was added (Z,Z)-4,7-tridecadienal as the acid taste and/or acid smell-reducing agent of the present invention in concentrations shown in the following Table 11 to give mayonnaise containing the agent, followed by sensory evaluation as in Example 1.

In the case of `CCCCC/C=C\C/C=C\CCC=O` [(Z,Z)-4,7-tridecadienal], the “A: number of panels, acid taste/acid smell extreme and cause irritation” value (0.005 ppt) is reported as 10, the “B: number of panels, acid taste/acid smell slightly strong and slightly cause irritation” value (0.005 ppt) is reported as 0 and the “C: number of panels, acid taste/acid smell slightly unpleasant” value (0.005 ppt) is reported as 0. For the same compound, the “Flavor judgment: number of panels who judged acid taste/acid smell quality the highest” value (0.005 ppt) was 0, the “N: number of panels, irritation of acid reduced to give a mild acid taste” value (0.005 ppt) was 0 and the “X: number of panels, acid taste reduced but piercing odor characteristic to aldehydes unpleasant” value (0.005 ppt) was 0. For the same compound, the “A: number of panels, acid taste/acid smell extreme and cause irritation” value (0.02 ppt) was 8, the “B: number of panels, acid taste/acid smell slightly strong and slightly cause irritation” value (0.02 ppt) was 2 and the “C: number of panels, acid taste/acid smell slightly unpleasant” value (0.02 ppt) was 0. For the same compound, the “Flavor judgment: number of panels who judged acid taste/acid smell quality the highest” value (0.02 ppt) was 0, the “N: number of panels, irritation of acid reduced to give a mild acid taste” value (0.02 ppt) was 0 and the “X: number of panels, acid taste reduced but piercing odor characteristic to aldehydes unpleasant” value (0.02 ppt) was 0. The “A: number of panels, acid taste/acid smell extreme and cause irritation” value (0.1 ppt) was 7, the “B: number of panels, acid taste/acid smell slightly strong and slightly cause irritation” value (0.1 ppt) was 2 and the “C: number of panels, acid taste/acid smell slightly unpleasant” value (0.1 ppt) was 1. For the same compound, the “Flavor judgment: number of panels who judged acid taste/acid smell quality the highest” value (0.1 ppt) was 0, the “N: number of panels, irritation of acid reduced to give a mild acid taste” value (0.1 ppt) was 0 and the “X: number of panels, acid taste reduced but piercing odor characteristic to aldehydes unpleasant” value (0.1 ppt) was 0. The “A: number of panels, acid taste/acid smell extreme and cause irritation” value (0.2 ppt) was 3, the “B: number of panels, acid taste/acid smell slightly strong and slightly cause irritation” value (0.2 ppt) was 4 and the “C: number of panels, acid taste/acid smell slightly unpleasant” value (0.2 ppt) was 3. For the same compound, the “Flavor judgment: number of panels who judged acid taste/acid smell quality the highest” value (0.2 ppt) was 0, the “N: number of panels, irritation of acid reduced to give a mild acid taste” value (0.2 ppt) was 0 and the “X: number of panels, acid taste reduced but piercing odor characteristic to aldehydes unpleasant” value (0.2 ppt) was 0. For the same compound, the “A: number of panels, acid taste/acid smell extreme and cause irritation” value (0.5 ppt) was 0, the “B: number of panels, acid taste/acid smell slightly strong and slightly cause irritation” value (0.5 ppt) was 2 and the “C: number of panels, acid taste/acid smell slightly unpleasant” value (0.5 ppt) was 3. The “Flavor judgment: number of panels who judged acid taste/acid smell quality the highest” value (0.5 ppt) was 1, the “N: number of panels, irritation of acid reduced to give a mild acid taste” value (0.5 ppt) was 5 and the “X: number of panels, acid taste reduced but piercing odor characteristic to aldehydes unpleasant” value (0.5 ppt) was 0. The “A: number of panels, acid taste/acid smell extreme and cause irritation” value (1 ppb) was 0, the “B: number of panels, acid taste/acid smell slightly strong and slightly cause irritation” value (1 ppb) was 0 and the “C: number of panels, acid taste/acid smell slightly unpleasant” value (1 ppb) was 2. For the same compound, the “Flavor judgment: number of panels who judged acid taste/acid smell quality the highest” value (1 ppb) was 0, the “N: number of panels, irritation of acid reduced to give a mild acid taste” value (1 ppb) was 4 and the “X: number of panels, acid taste reduced but piercing odor characteristic to aldehydes unpleasant” value (1 ppb) was 4. For the same compound, the “A: number of panels, acid taste/acid smell extreme and cause irritation” value (1 ppt) was 0, the “B: number of panels, acid taste/acid smell slightly strong and slightly cause irritation” value (1 ppt) was 2 and the “C: number of panels, acid taste/acid smell slightly unpleasant” value (1 ppt) was 2. The “Flavor judgment: number of panels who judged acid taste/acid smell quality the highest” value (1 ppt) was 1, the “N: number of panels, irritation of acid reduced to give a mild acid taste” value (1 ppt) was 6 and the “X: number of panels, acid taste reduced but piercing odor characteristic to aldehydes unpleasant” value (1 ppt) was 0. The “A: number of panels, acid taste/acid smell extreme and cause irritation” value (5 ppt) was 0, the “B: number of panels, acid taste/acid smell slightly strong and slightly cause irritation” value (5 ppt) was 0 and the “C: number of panels, acid taste/acid smell slightly unpleasant” value (5 ppt) was 2. For the same compound, the “Flavor judgment: number of panels who judged acid taste/acid smell quality the highest” value (5 ppt) was 4, the “N: number of panels, irritation of acid reduced to give a mild acid taste” value (5 ppt) was 8 and the “X: number of panels, acid taste reduced but piercing odor characteristic to aldehydes unpleasant” value (5 ppt) was 0. For the same compound, the “A: number of panels, acid taste/acid smell extreme and cause irritation” value (10 ppb) was 0, the “B: number of panels, acid taste/acid smell slightly strong and slightly cause irritation” value (10 ppb) was 0 and the “C: number of panels, acid taste/acid smell slightly unpleasant” value (10 ppb) was 1. The “Flavor judgment: number of panels who judged acid taste/acid smell quality the highest” value (10 ppb) was 0, the “N: number of panels, irritation of acid reduced to give a mild acid taste” value (10 ppb) was 2 and the “X: number of panels, acid taste reduced but piercing odor characteristic to aldehydes unpleasant” value (10 ppb) was 7. For the same compound, the “A: number of panels, acid taste/acid smell extreme and cause irritation” value (20 ppt) was 0, the “B: number of panels, acid taste/acid smell slightly strong and slightly cause irritation” value (20 ppt) was 0 and the “C: number of panels, acid taste/acid smell slightly unpleasant” value (20 ppt) was 3. The “Flavor judgment: number of panels who judged acid taste/acid smell quality the highest” value (20 ppt) was 4, the “N: number of panels, irritation of acid reduced to give a mild acid taste” value (20 ppt) was 7 and the “X: number of panels, acid taste reduced but piercing odor characteristic to aldehydes unpleasant” value (20 ppt) was 0. The “A: number of panels, acid taste/acid smell extreme and cause irritation” value (50 ppb) was 0, the “B: number of panels, acid taste/acid smell slightly strong and slightly cause irritation” value (50 ppb) was 0 and the “C: number of panels, acid taste/acid smell slightly unpleasant” value (50 ppb) was 1. For the same compound, the “Flavor judgment: number of panels who judged acid taste/acid smell quality the highest” value (50 ppb) was 0, the “N: number of panels, irritation of acid reduced to give a mild acid taste” value (50 ppb) was 1 and the “X: number of panels, acid taste reduced but piercing odor characteristic to aldehydes unpleasant” value (50 ppb) was 8. The “A: number of panels, acid taste/acid smell extreme and cause irritation” value (100 ppt) was 0, the “B: number of panels, acid taste/acid smell slightly strong and slightly cause irritation” value (100 ppt) was 1 and the “C: number of panels, acid taste/acid smell slightly unpleasant” value (100 ppt) was 4. The “Flavor judgment: number of panels who judged acid taste/acid smell quality the highest” value (100 ppt) was 0, the “N: number of panels, irritation of acid reduced to give a mild acid taste” value (100 ppt) was 4 and the “X: number of panels, acid taste reduced but piercing odor characteristic to aldehydes unpleasant” value (100 ppt) was 1. For the same compound, the “A: number of panels, acid taste/acid smell extreme and cause irritation” value (500 ppt) was 0, the “B: number of panels, acid taste/acid smell slightly strong and slightly cause irritation” value (500 ppt) was 0 and the “C: number of panels, acid taste/acid smell slightly unpleasant” value (500 ppt) was 4. For the same compound, the “Flavor judgment: number of panels who judged acid taste/acid smell quality the highest” value (500 ppt) was 0, the “N: number of panels, irritation of acid reduced to give a mild acid taste” value (500 ppt) was 4 and the “X: number of panels, acid taste reduced but piercing odor characteristic to aldehydes unpleasant” value (500 ppt) was 2.
